# Source: the supplement of paper PMC10307832
# Experiments:
# Test in all cases: relative viability (nuclei count vs DMSO), 5 days (fraction); higher = more cells survive
# [1] = system: ABC-1
# How it was run: (§1)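 Nuclei were stained with Hoechst during a one-step fixation (final 0.05% Triton X-100, 1% formaldehyde, 1 ug/ml Hoechst) carried out 5 days after dosing, then counted on 4× images. The cells, lung cancer lines in 1536-well plates, had been dosed by pin tool the day after seeding with one drug alone or a fixed anchor-drug dose plus five library-drug doses (not always all listed) in √10 steps. Relative viability is the nuclei count in treated wells divided by that in vehicle wells, and each value is the median of duplicate plates.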
# [2] = system: COR-L23
# How it was run: as §1
# [3] = system: EMC-BAC-2
# How it was run: as §1
# [4] = system: HARA
# How it was run: as §1
# [5] = system: HCC-15
# How it was run: as §1
# [6] = system: HCC-366
# How it was run: as §1
# [7] = system: HCC-78
# How it was run: as §1
# [8] = system: HOP-62
# How it was run: as §1
# [9] = system: LC-2-ad
# How it was run: as §1
# [10] = system: NCI-H1395
# How it was run: as §1
# [11] = system: NCI-H1793
# How it was run: as §1
# [12] = system: NCI-H1944
# How it was run: as §1
# [13] = system: NCI-H1993
# How it was run: as §1
# [14] = system: NCI-H2023
# How it was run: as §1
# [15] = system: NCI-H2126
# How it was run: as §1
# [16] = system: NCI-H2228
# How it was run: as §1
# [17] = system: NCI-H23
# How it was run: as §1
# [18] = system: NCI-H2405
# How it was run: as §1
# [19] = system: NCI-H358
# How it was run: as §1
# [20] = system: NCI-H838
# How it was run: as §1
# [21] = system: SK-LU-1
# How it was run: as §1
smiles,measurement,setting,value
CCN(CC)CCCCNc1ncc2cc(-c3cc(OC)cc(OC)c3)c(NC(=O)NC(C)(C)C)nc2n1 + CS(=O)(=O)CCNCc1ccc(-c2ccc3ncnc(Nc4ccc(OCc5cccc(F)c5)c(Cl)c4)c3c2)o1 [Lapatinib] (partner 2 µM),relative viability,[1]; first compound 0.01 µM,1.33
same,relative viability,[1]; first compound 0.03162 µM,1.11
same,relative viability,[1]; first compound 0.1 µM,1.22
same,relative viability,[1]; first compound 0.3162 µM,1.34
same,relative viability,[1]; first compound 1 µM,1.22
same,relative viability,[2]; first compound 0.01 µM,1.09
same,relative viability,[2]; first compound 0.03162 µM,0.973
same,relative viability,[2]; first compound 0.1 µM,0.943
same,relative viability,[2]; first compound 0.3162 µM,1.19
same,relative viability,[2]; first compound 1 µM,0.881
same,relative viability,[3]; first compound 0.01 µM,0.946
same,relative viability,[3]; first compound 0.03162 µM,0.941
same,relative viability,[3]; first compound 0.1 µM,0.961
same,relative viability,[3]; first compound 0.3162 µM,0.999
same,relative viability,[3]; first compound 1 µM,0.859
same,relative viability,[4]; first compound 0.01 µM,0.833
same,relative viability,[4]; first compound 0.03162 µM,0.469
same,relative viability,[4]; first compound 0.1 µM,0.764
same,relative viability,[4]; first compound 0.3162 µM,0.581
same,relative viability,[4]; first compound 1 µM,0.227
same,relative viability,[5]; first compound 0.01 µM,0.871
same,relative viability,[5]; first compound 0.03162 µM,0.944
same,relative viability,[5]; first compound 0.1 µM,0.83
same,relative viability,[5]; first compound 0.3162 µM,1.07
same,relative viability,[5]; first compound 1 µM,0.779
same,relative viability,[6]; first compound 0.01 µM,1.05
same,relative viability,[6]; first compound 0.03162 µM,1.07
same,relative viability,[6]; first compound 0.1 µM,1.73
same,relative viability,[6]; first compound 0.3162 µM,1.27
same,relative viability,[6]; first compound 1 µM,1.06
same,relative viability,[7]; first compound 0.03162 µM,1.09
same,relative viability,[7]; first compound 0.1 µM,1.09
same,relative viability,[7]; first compound 0.3162 µM,0.87
same,relative viability,[7]; first compound 1 µM,0.748
same,relative viability,[8]; first compound 0.01 µM,1.01
same,relative viability,[8]; first compound 0.03162 µM,1.16
same,relative viability,[8]; first compound 0.1 µM,1.19
same,relative viability,[8]; first compound 0.3162 µM,1.09
same,relative viability,[8]; first compound 1 µM,1.33
same,relative viability,[9]; first compound 0.01 µM,1.05
same,relative viability,[9]; first compound 0.03162 µM,1
same,relative viability,[9]; first compound 0.1 µM,1.22
same,relative viability,[9]; first compound 0.3162 µM,1.12
same,relative viability,[9]; first compound 1 µM,0.917
same,relative viability,[10]; first compound 0.03162 µM,0.93
same,relative viability,[10]; first compound 0.1 µM,1.07
same,relative viability,[10]; first compound 0.3162 µM,0.725
same,relative viability,[10]; first compound 1 µM,0.551
same,relative viability,[11]; first compound 0.01 µM,0.623
same,relative viability,[11]; first compound 0.1 µM,1.03
same,relative viability,[11]; first compound 0.3162 µM,0.562
same,relative viability,[11]; first compound 1 µM,0.367
same,relative viability,[12]; first compound 0.01 µM,0.903
same,relative viability,[12]; first compound 0.03162 µM,0.789
same,relative viability,[12]; first compound 0.1 µM,0.996
same,relative viability,[12]; first compound 0.3162 µM,0.836
same,relative viability,[12]; first compound 1 µM,0.676
same,relative viability,[13]; first compound 0.01 µM,0.85
same,relative viability,[13]; first compound 0.03162 µM,0.719
same,relative viability,[13]; first compound 0.1 µM,0.774
same,relative viability,[13]; first compound 0.3162 µM,0.785
same,relative viability,[13]; first compound 1 µM,0.738
same,relative viability,[14]; first compound 0.01 µM,0.748
same,relative viability,[14]; first compound 0.03162 µM,0.94
same,relative viability,[14]; first compound 0.1 µM,1.17
same,relative viability,[14]; first compound 0.3162 µM,0.919
same,relative viability,[14]; first compound 1 µM,0.798
same,relative viability,[15]; first compound 0.01 µM,0.786
same,relative viability,[15]; first compound 0.03162 µM,0.72
same,relative viability,[15]; first compound 0.1 µM,0.796
same,relative viability,[15]; first compound 0.3162 µM,0.808
same,relative viability,[15]; first compound 1 µM,0.726
same,relative viability,[16]; first compound 0.01 µM,1.06
same,relative viability,[16]; first compound 0.03162 µM,1.35
same,relative viability,[16]; first compound 0.1 µM,1.19
same,relative viability,[16]; first compound 0.3162 µM,1.22
same,relative viability,[16]; first compound 1 µM,0.74
same,relative viability,[17]; first compound 0.01 µM,1.09
same,relative viability,[17]; first compound 0.03162 µM,1.12
same,relative viability,[17]; first compound 0.1 µM,1.36
same,relative viability,[17]; first compound 0.3162 µM,1.1
same,relative viability,[17]; first compound 1 µM,0.961
same,relative viability,[18]; first compound 0.01 µM,0.926
same,relative viability,[18]; first compound 0.03162 µM,1.05
same,relative viability,[18]; first compound 0.1 µM,1.16
same,relative viability,[18]; first compound 0.3162 µM,1.28
same,relative viability,[18]; first compound 1 µM,1.04
same,relative viability,[19]; first compound 0.01 µM,0.449
same,relative viability,[19]; first compound 0.03162 µM,0.484
same,relative viability,[19]; first compound 0.1 µM,0.457
same,relative viability,[19]; first compound 0.3162 µM,0.498
same,relative viability,[19]; first compound 1 µM,0.406
same,relative viability,[20]; first compound 0.01 µM,0.865
same,relative viability,[20]; first compound 0.03162 µM,0.993
same,relative viability,[20]; first compound 0.1 µM,1.2
same,relative viability,[20]; first compound 0.3162 µM,0.969
same,relative viability,[20]; first compound 1 µM,0.563
same,relative viability,[21]; first compound 0.01 µM,0.985
same,relative viability,[21]; first compound 0.03162 µM,0.975
same,relative viability,[21]; first compound 0.1 µM,0.947
same,relative viability,[21]; first compound 0.3162 µM,1.2
same,relative viability,[21]; first compound 1 µM,0.638
